Reference: patent publication US20160237059A1, “HETEROCYCLIC SUBSTITUTED TRIFLUOROMETHYL PYRIMIDINONES AND THEIR USE” (BAYER PHARMA AKTIENGESELLSCHAFT, priority 2013, published 2016)

What was measured:
Assay type in all cases: cell-based
murine CCR2 [1] = target: T1, murine CCR2 (Mus musculus, UniProt P51683); assay: Functional β-arrestin recruiting test with murine MCP-1 (B-2b); conditions: U2OS β-arrestin cell line transfected with murine CCR2; agonist murine MCP-1; in some cases means of several determinations
T1 construct: host or cells: U2OS β-arrestin cell line
T1 sequence (P51683 whole entry): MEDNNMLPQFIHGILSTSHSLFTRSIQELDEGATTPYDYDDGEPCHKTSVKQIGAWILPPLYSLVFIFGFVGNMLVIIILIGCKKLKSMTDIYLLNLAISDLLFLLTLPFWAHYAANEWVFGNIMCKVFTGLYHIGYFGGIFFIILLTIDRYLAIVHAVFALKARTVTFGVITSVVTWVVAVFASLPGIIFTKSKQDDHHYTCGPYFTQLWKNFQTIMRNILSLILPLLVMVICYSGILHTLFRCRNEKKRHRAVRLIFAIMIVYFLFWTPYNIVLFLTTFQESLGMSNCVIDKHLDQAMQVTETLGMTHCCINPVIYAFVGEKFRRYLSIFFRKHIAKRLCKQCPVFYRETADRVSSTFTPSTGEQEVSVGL
How it was run: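 In a PathHunter β-galactosidase complementation assay, U2OS cells expressing murine CCR2 were preincubated 10 min with compound (10-point, 1:3.16 dilutions), then challenged with murine MCP-1 at its predetermined EC50 for 90 min at 37 °C. Luminescence was read after 60 min, and IC50 was fitted with a 4-parameter Hill function.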

human CCR2 = target: T2, human CCR2 (Homo sapiens, UniProt P41597); assay: Functional Ca2+ release test (B-1); conditions: Chem-1 cell line transfected with human CCR2; 50% inhibition of the MCP-1 effect, MCP-1 at EC50 (about 5 nM); in some cases means of several determinations
T2 construct: host or cells: Chem-1 cell line
T2 sequence (P41597 1-360 isoform P41597-2): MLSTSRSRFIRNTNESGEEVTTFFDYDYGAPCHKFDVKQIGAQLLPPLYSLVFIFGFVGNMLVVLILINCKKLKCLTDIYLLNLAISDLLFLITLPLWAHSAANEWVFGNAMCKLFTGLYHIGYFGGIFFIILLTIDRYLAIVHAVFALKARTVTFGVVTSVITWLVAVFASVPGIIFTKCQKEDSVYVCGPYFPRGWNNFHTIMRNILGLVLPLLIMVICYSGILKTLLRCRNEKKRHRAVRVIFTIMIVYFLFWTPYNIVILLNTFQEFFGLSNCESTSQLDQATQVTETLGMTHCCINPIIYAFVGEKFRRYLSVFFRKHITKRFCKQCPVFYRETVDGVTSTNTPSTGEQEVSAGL
How it was run: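 Inhibition of MCP-1-evoked Ca2+ release was measured over 120 s by fluorescence imaging in Fluo-4-loaded, human CCR2-transfected Chem-1 cells. Compounds, tested in 10-point 1:3.16 series, were added 10 min before agonist at its EC50 (typically about 5 nM). IC50 values were obtained by 4-parameter logistic fitting.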

murine CCR2 [2] = target: T1, murine CCR2; assay: Functional β-arrestin recruiting test with human MCP-1 (B-2a); conditions: U2OS β-arrestin cell line transfected with murine CCR2; agonist human MCP-1 at EC50 (about 3 nM); in some cases means of several determinations
How it was run: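 Antagonist mode in U2OS cells expressing murine CCR2, read by PathHunter β-galactosidase complementation luminescence. Cells pre-incubated 10 min with 10-point compound dilutions (1:3.16 steps), then stimulated with human MCP-1 at its EC50 (usually about 3 nM) for 90 min at 37° C.; IC50 from 4-parameter logistic fit.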

IC50 (murine CCR2 [1])	IC50 (human CCR2)	IC50 (murine CCR2 [2])	Compound
449 nM	27 nM	77 nM	O=c1[nH]c(Cc2ccno2)nc(C(F)(F)F)c1Oc1ccc(Cl)c(Cl)c1 [Example 95, 5-(3,4-dichlorophenoxy)-2-(1,2-oxazol-5-ylmethyl)-6-(trifluoromethyl)pyrimidin-4(3H)-one]
812 nM	1.5 nM	44 nM	COc1ncccc1-c1nc(C(F)(F)F)c(Oc2ccc(Cl)c(Cl)c2)c(=O)[nH]1 [Example 42]
307 nM	2.1 nM	21 nM	O=c1[nH]c(-c2ncccc2Cl)nc(C(F)(F)F)c1Cc1ccc(Cl)c(Cl)c1 [Example 16, 2-(3-chloropyridin-2-yl)-5-(3,4-dichlorobenzyl)-6-(trifluoromethyl)pyrimidin-4(3H)-one]
222 nM	2.2 nM	74 nM	Nc1cccc(-c2nc(C(F)(F)F)c(Oc3ccc(Cl)c(C(F)(F)F)c3)c(=O)[nH]2)n1 [Example 44, 2-(6-aminopyridin-2-yl)-5-[4-chloro-3-(trifluoromethyl)phenoxy]-6-(trifluoromethyl)pyrimidin-4(3H)-one]
37 nM	0.4 nM	12 nM	O=c1[nH]c(-n2cccn2)nc(C(F)(F)F)c1Oc1ccc(Cl)c(C(F)(F)F)c1 [Example 73, 5-[4-chloro-3-(trifluoromethyl)phenoxy]-2-(1H-pyrazol-1-yl)-6-(trifluoromethyl)pyrimidin-4(3H)-one]
12 nM	0.6 nM	2.5 nM	O=c1[nH]c(-c2cc[nH]n2)nc(C(F)(F)F)c1Oc1ccc(Cl)c(Cl)c1 [Example 49, 5-(3,4-Dichlorophenoxy)-2-(1H-pyrazol-3-yl)-6-(trifluoromethyl)pyrimidin-4(3H)-one]
50 nM	1 nM	13 nM	O=c1[nH]c(-c2ncccc2Cl)nc(C(F)(F)F)c1Oc1ccc(Cl)c(Cl)c1 [Example 5, 2-(3-chloropyridin-2-yl)-5-(3,4-dichlorophenoxy)-6-(trifluoromethyl)pyrimidin-4(3H)-one]
18 nM	2 nM	6.3 nM	O=c1[nH]c(-c2n[nH]cc2Cl)nc(C(F)(F)F)c1Oc1ccc(Cl)c(C(F)(F)F)c1 [Example 77, 2-(4-chloro-1H-pyrazol-3-yl)-5-[4-chloro-3-(trifluoromethyl)phenoxy]-6-(trifluoromethyl)pyrimidin-4(3H)-one]
122 nM	0.9 nM	40 nM	COc1ncccc1-c1nc(C(F)(F)F)c(Oc2ccc(Cl)c(C(F)(F)F)c2)c(=O)[nH]1 [Example 37, 5-[4-chloro-3-(trifluoromethyl)phenoxy]-2-(2-methoxypyridin-3-yl)-6-(trifluoromethyl)pyrimidin-4(3H)-one]
53 nM	2.4 nM	28 nM	Nc1cnn(-c2nc(C(F)(F)F)c(Cc3ccc(Cl)c(C(F)(F)F)c3)c(=O)[nH]2)c1 [Example 107, 2-(4-Amino-1H-pyrazol-1-yl)-5-[4-chloro-3-(trifluoromethyl)benzyl]-6-(trifluoromethyl)pyrimidin-4(3H)-one]
95 nM	1 nM	3.6 nM	Nc1cnn(-c2nc(C(F)(F)F)c(Oc3ccc(Cl)c(Cl)c3)c(=O)[nH]2)c1 [Example 47, 2-(4-Amino-1H-pyrazol-1-yl)-5-(3,4-dichlorophenoxy)-6-(trifluoromethyl)pyrimidin-4(3H)-one]
50 nM	0.9 nM	20 nM	O=c1[nH]c(-c2ncccc2F)nc(C(F)(F)F)c1Oc1ccc(Cl)c(C(F)(F)F)c1 [Example 39, 5-[4-chloro-3-(trifluoromethyl)phenoxy]-2-(3-fluoropyridin-2-yl)-6-(trifluoromethyl)pyrimidin-4(3H)-one]
194 nM	4.3 nM	28 nM	O=c1[nH]c(-c2ncccc2Cl)nc(C(F)(F)F)c1Oc1ccc(Cl)c(F)c1 [Example 11, 5-(4-chloro-3-fluorophenoxy)-2-(3-chloropyridin-2-yl)-6-(trifluoromethyl)pyrimidin-4(3H)-one]
308 nM	20 nM	79 nM	Cc1nc(-c2nc(C(F)(F)F)c(Oc3ccc(Cl)c(Cl)c3)c(=O)[nH]2)no1 [Example 83]
1080 nM	3 nM	57 nM	O=c1[nH]c(-n2cccn2)nc(C(F)(F)F)c1Cc1ccc(Cl)c(C(F)(F)F)c1 [Example 71, 5-[4-chloro-3-(trifluoromethyl)benzyl]-2-(1H-pyrazol-1-yl)-6-(trifluoromethyl)pyrimidin-4(3H)-one]
	18 nM	6100 nM	O=C(O)c1cc(O)n(-c2nc(C(F)(F)F)c(Cc3ccc(Cl)c(Cl)c3)c(=O)[nH]2)n1 [Example 88, 1-[5-(3,4-Dichlorobenzyl)-6-oxo-4-(trifluoromethyl)-1,6-dihydropyrimidin-2-yl]-5-hydroxy-H-pyrazole-3-carboxylic acid]
	13 nM	180 nM	Cc1cccc(-c2nc(C(F)(F)F)c(Oc3ccc(Cl)c(Cl)c3)c(=O)[nH]2)n1 [Example 9, 5-(3,4-dichlorophenoxy)-2-(6-methylpyridin-2-yl)-6-(trifluoromethyl)pyrimidin-4(3H)-one]
	19 nM	110 nM	COCc1nc(-c2nc(C(F)(F)F)c(Oc3ccc(Cl)c(Cl)c3)c(=O)[nH]2)no1 [Example 81, 5-(3,4-dichlorophenoxy)-2-[5-(methoxymethyl)-1,2,4-oxadiazol-3-yl]-6-(trifluoromethyl)pyrimidin-4(3H)-one x N,N-diisopropylethylamine]
	12 nM	380 nM	O=c1[nH]c(-c2cccc(Cl)n2)nc(C(F)(F)F)c1Cc1ccc(Cl)c(Cl)c1 [Example 20, 2-(6-chloropyridin-2-yl)-5-(3,4-dichlorobenzyl)-6-(trifluoromethyl)pyrimidin-4(3H)-one]
	45 nM	460 nM	CCOC(=O)C1CCN(c2nc(C(F)(F)F)c(Cc3ccc(Cl)c(Cl)c3)c(=O)[nH]2)CC1 [Example 176, ethyl 1-[5-(3,4-dichlorobenzyl)-6-oxo-4-(trifluoromethyl)-1,6-dihydropyrimidin-2-yl]piperidine-4-carboxylate]
	150 nM	1100 nM	Cc1nc(Cc2nc(C(F)(F)F)c(Cc3ccc(Cl)c(Cl)c3)c(=O)[nH]2)cs1 [Example 174, 5-(3,4-dichlorobenzyl)-2-[(2-methyl-1,3-thiazol-4-yl)methyl]-6-(trifluoromethyl)pyrimidin-4(3H)-one]
	36 nM	220 nM	Cn1ncc(-c2nc(C(F)(F)F)c(Cc3ccc(Cl)c(Cl)c3)c(=O)[nH]2)c1N [Example 61, 2-(5-amino-1-methyl-1H-pyrazol-4-yl)-5-(3,4-dichlorobenzyl)-6-(trifluoromethyl)pyrimidin-4(3H)-one]
	180 nM	680 nM	Cn1nc(Cc2nc(C(F)(F)F)c(Cc3ccc(Cl)c(Cl)c3)c(=O)[nH]2)[nH]c1=O [Example 263, 5-(3,4-Dichlorobenzyl)-2-[(1-methyl-5-oxo-4,5-dihydro-1H-1,2,4-triazol-3-yl)methyl]-6-(trifluoromethyl)pyrimidin-4(3H)-one]
	14 nM	140 nM	O=c1[nH]c(-c2ncc(F)cc2F)nc(C(F)(F)F)c1Cc1ccc(Cl)c(Cl)c1 [Example 18, 5-(3,4-dichlorobenzyl)-2-(3,5-difluoropyridin-2-yl)-6-(trifluoromethyl)pyrimidin-4(3H)-one]
	38 nM	900 nM	Cn1nccc1-c1nc(C(F)(F)F)c(Oc2ccc(Cl)c(Cl)c2)c(=O)[nH]1 [Example 56, 5-(3,4-dichlorophenoxy)-2-(1-methyl-1H-pyrazol-5-yl)-6-(trifluoromethyl)pyrimidin-4(3H)-one]
	59 nM	230 nM	Nc1oc(=O)sc1-c1nc(C(F)(F)F)c(Cc2ccc(Cl)c(Cl)c2)c(=O)[nH]1 [Example 46, 2-(5-Amino-2-oxo-1,3-oxathiol-4-yl)-5-(3,4-dichlorobenzyl)-6-(trifluoromethyl)pyrimidin-4(3H)-one]
	27 nM	380 nM	O=C1OCCN1c1nc(C(F)(F)F)c(Cc2ccc(Cl)c(Cl)c2)c(=O)[nH]1 [Example 112, 5-(3,4-Dichlorobenzyl)-2-(2-oxo-1,3-oxazolidin-3-yl)-6-(trifluoromethyl)pyrimidin-4(3H)-one]
	49 nM	1000 nM	O=c1[nH]c(-c2ccncc2)nc(C(F)(F)F)c1Cc1ccc(Cl)c(Cl)c1 [Example 28, 5-(3,4-dichlorobenzyl)-2-(pyridin-4-yl)-6-(trifluoromethyl)pyrimidin-4(3H)-one]
